# Paper PMC3555145 (Biomacromolecules, 2012)
# Tested on: Raw 264.7 and HeLa cells
# Details: rhodamine-labeled polypeptide, n = 3
substance,measurement,setting,value
poly(ethylene glycol)-block-poly(O-pentenyl-L-serine-graft-cysteamine) [PEG112-b-(PPELS70-g-CA)],time of maximal cell uptake level post polypeptide treatment,2 μg/well,2 h
same,dependence of cell uptake level on incubation time and feeding amount,"0.5-5 μg/well for 2 h, 2 μg/well for 0.4-4 h",increased with incubation time and the feeding amount
